# Literature values, collected in patent publication US20250261646A1, “SOLID COMPOSITION AS A SOLUBLE PRECURSOR OF AN ECO-FRIENDLY AND EFFECTIVE METAL-BASED BIOCIDE, PROCESS AND USE THEREOF” (BIOREM ENGINEERING SA, priority 2022, published 2025).
# Conditions: for comparison
compound,measurement,value
"[O]=[Zn] [ZnO, zinc(II) oxide]",solubility,4 µg/mL
